Consider 16 compounds from PMC11369174, “Proteome-scale characterisation of motif-based interactome rewiring by disease mutations” (Molecular Systems Biology, 2024).

What is called Kd is the concentration at which binding is half-saturated.

Assay [1] deals with T1, NEDD4 WW2 (Homo sapiens, UniProt P46934). Nature of the assay: FP displacement assay, NEDD4 WW2. Type of assay: binding. The settings on record: read-out: KD-values [µM] + SEM.
Protocol: For saturation experiments, a dilution series of the respective protein domains was generated (25 µL) and 10 nM fluorescein isothiocyanate (FITC)-labelled peptide (diluted in 50 mM sodium phosphate buffer pH 7.4, 0.05% Tween) were added in an end volume of 50 µL. A control experiment titrating GST was performed for the binding of the NEDD4 WW2 domain, since the GST-tagged construct was used for affinity measurements.
If the raw values indicated a FITC-contamination of the unlabelled peptide, the data was excluded and a new batch of peptide was ordered for remeasuring the affinity.
Assay [2] concerns the target T1, NEDD4 WW2. Nature of the assay: GenVar_HD2 ProP-PD phage selection, NEDD4 WW2. The settings on record: bait NEDD4 WW2; from NGS counts of overlapping wild-type/mutant library peptide pairs; positive = mutation enhances, negative = disrupts binding. As for the experimental part:
(§1) Phage display screens were performed according to previous reports (Benz et al, [2022]; Ali et al, [2020]) and for four consecutive selection rounds with five to six replicates per bait protein domain against the […] library.
(§2) On the first day, both bait (15 µg in 100 µL PBS) and control protein domains (GST and MBP; 10 µg in 100 µL PBS) were immobilised on a 96-well MaxiSorb plate (Nunc) overnight in the cold room while shaking. Additionally, a 10 mL culture of Omnimax E. coli bacteria supplemented with 10 µg/mL tetracycline was incubated overnight at 37 °C at 200 rpm.
(§3) First, protein solutions were removed from both control and bait protein domain plates and the wells were blocked with 0.5% BSA in PBS (200 µL/well) for 1 h in the cold room while shaking. After that, three Omnimax E. coli cultures were started supplemented with either 30 µg/mL kanamycin, 100 µg/mL carbenicillin and 10 µg/mL tetracycline and incubated at 37 °C and 200 rpm. The two first cultures served as a means to check for helper phage contamination (kanamycin) and phages with library phagemid contamination (carbenicillin) of the culture used for elution of the phages during selections. The tetracycline Omnimax E. coli culture was grown until OD at 600 nm reached 0.6–0.8. […]

Assay [3] deals with T2, CASK kinase domain (Homo sapiens, UniProt O14936).
T2 sequence (O14936 1-340): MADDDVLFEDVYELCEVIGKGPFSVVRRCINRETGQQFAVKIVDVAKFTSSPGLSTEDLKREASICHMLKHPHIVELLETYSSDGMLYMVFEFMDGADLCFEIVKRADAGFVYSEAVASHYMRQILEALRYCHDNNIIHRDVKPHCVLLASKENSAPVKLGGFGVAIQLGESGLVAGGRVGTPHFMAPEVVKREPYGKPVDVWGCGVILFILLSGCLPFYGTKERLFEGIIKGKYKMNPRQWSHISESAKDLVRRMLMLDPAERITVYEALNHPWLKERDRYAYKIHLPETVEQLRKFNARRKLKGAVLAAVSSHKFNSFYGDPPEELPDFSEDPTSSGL
Nature of the assay: FP displacement assay, CASK kinase domain. The settings on record: FP displacement of FITC-PER2 (10 nM) complexed with domain (1-2x KD), 50 mM sodium phosphate pH 7.4, 100 mM NaCl, KD from IC50, technical triplets, n.b. = not binding within concentration range used.
Protocol: (§4) FP experiments were performed, as previously described (Kliche et al, [2021], [2023]), on an iD5 plate reader (Molecular devices) using black half-area non-binding 96-well plates (Corning). In order to calculate the FP signal in millipolarisation (mP), the FITC-labelled peptides were excited at 485 nm and the emitted light was measured at 535 nm in two different angles. For saturation experiments, a dilution series of the respective protein domains was generated (25 µL) and 10 nM fluorescein isothiocyanate (FITC)-labelled peptide (diluted in 50 mM sodium phosphate buffer pH 7.4, 0.05% Tween) were added in an end volume of 50 µL. A control experiment titrating GST was performed for the binding of the NEDD4 WW2 domain, since the GST-tagged construct was used for affinity measurements. For fitting the data, the buffer-corrected reduced values were plotted in GraphPad PRISM against the respective protein concentration and the KD-values were obtained by fitting against the quadratic equation (Gianni et al, [2005]).
(§5) The buffer-corrected reduced values were subsequently plotted against the logarithmic unlabelled peptide concentration to derive the IC50 values by using the sigmoidal dose-response (x is logarithmic) fit in GraphPad PRISM and calculate the KD values as described previously (Nikolovska-Coleska et al, [2004]).

The target of assay [4] is T3, MAP1LC3B ATG8 (Homo sapiens, UniProt Q9GZQ8). Put plainly: FP displacement assay, MAP1LC3B ATG8. The settings on record: read-out: KD-values [µM] + SEM. Format: binding.
Protocol: as §4, §5
In assay [5] the target is T3, MAP1LC3B ATG8. Put plainly: Isothermal titration calorimetry, MAP1LC3B ATG8. Format: binding. Also on record: S∆T / ∆H: unit not given here. The settings on record: ITC; for N (stoichiometry of the interaction): N value from the fit or set if necessary.
Assay [6] addresses T3, MAP1LC3B ATG8. Nature of the assay: GenVar_HD2 ProP-PD phage selection, MAP1LC3B ATG8. The settings on record: bait MAP1LC3B ATG8; from NGS counts of overlapping wild-type/mutant library peptide pairs; positive = mutation enhances, negative = disrupts binding. The method, then: as §1, §2
First, protein solutions were removed from both control and bait protein domain plates and the wells were blocked with 0.5% BSA in PBS (200 µL/well) for 1 h in the cold room while shaking. After that, three Omnimax E. coli cultures were started supplemented with either 30 µg/mL kanamycin, 100 µg/mL carbenicillin and 10 µg/mL tetracycline and incubated at 37 °C and 200 rpm. The two first cultures served as a means to check for helper phage contamination (kanamycin) and phages with library phagemid contamination (carbenicillin) of the culture used for elution of the phages during selections. The tetracycline Omnimax E. coli culture was grown until OD at 600 nm reached 0.6–0.8.
Naïve phage libraries were precipitated (10 µL/well of bait protein domain) by diluting the library tenfold with PBS, adding one-fourth of 20% […] and 400 mM NaCl and incubating the mixture for 15 min on ice. Subsequently, phages were spun down for 15 min at 13,000 × g and resuspended in 0.5% BSA and 0.05% Tween-20 in PBS (100 µL/well). Control domain plates were washed four times with 200 µL 0.05% Tween-20 in PBS, 100 µL of the naïve phage library (10^11 phages/mL) were added to every well and the plates incubated for 1 h in the cold room while shaking. Next, protein bait domain plates were washed four times with 0.05% Tween-20 in PBS and the phage solution from the control protein plate was transferred to the respective wells on the protein bait domain plate. […]

Assay [7] addresses KPNA4 ARM major (Homo sapiens, UniProt O00629). Nature of the assay: FP displacement assay, KPNA4 ARM major pocket. Format: binding.
Protocol: as §4, §5
Assay [8] has as its target KPNA4 ARM minor (Homo sapiens, UniProt O00629). Nature of the assay: FP displacement assay, KPNA4 ARM minor pocket. Format: binding.
Protocol: as §4, §5
In assay [9] the test system is KPNA4 ARM. Nature of the assay: GenVar_HD2 ProP-PD phage selection, KPNA4 ARM. Type of assay: binding, human. The settings on record: bait KPNA4 ARM; from NGS counts of overlapping wild-type/mutant library peptide pairs; positive = mutation enhances, negative = disrupts binding.
Assay [10] deals with G3BP1 NTF2 (Homo sapiens, UniProt Q13283). Put plainly: GenVar_HD2 ProP-PD phage selection, G3BP1 NTF2. The settings on record: bait G3BP1 NTF2; from NGS counts of overlapping wild-type/mutant library peptide pairs; positive = mutation enhances, negative = disrupts binding. As for the experimental part:
as §1, §2, §3

In assay [11] the target is T4, CLTC NTD (Homo sapiens, UniProt Q00610).
T4 sequence (Q00610 1-364): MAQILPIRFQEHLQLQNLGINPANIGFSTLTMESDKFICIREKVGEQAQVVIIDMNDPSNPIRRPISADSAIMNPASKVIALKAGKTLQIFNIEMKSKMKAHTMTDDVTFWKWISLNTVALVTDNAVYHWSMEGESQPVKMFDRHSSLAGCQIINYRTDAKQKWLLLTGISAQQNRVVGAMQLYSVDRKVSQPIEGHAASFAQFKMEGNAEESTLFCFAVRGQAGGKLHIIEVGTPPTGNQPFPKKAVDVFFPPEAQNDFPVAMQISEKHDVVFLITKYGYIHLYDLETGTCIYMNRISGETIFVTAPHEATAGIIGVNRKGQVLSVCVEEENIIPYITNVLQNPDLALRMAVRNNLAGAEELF
Put plainly: FP displacement assay, CLTC NTD. Format: binding. The settings on record: read-out: KD-values [µM] + SEM.
Protocol: (§6) FP experiments were performed, as previously described (Kliche et al, [2021], [2023]), on an iD5 plate reader (Molecular devices) using black half-area non-binding 96-well plates (Corning). In order to calculate the FP signal in millipolarisation (mP), the FITC-labelled peptides were excited at 485 nm and the emitted light was measured at 535 nm in two different angles. For saturation experiments, a dilution series of the respective protein domains was generated (25 µL) and 10 nM fluorescein isothiocyanate (FITC)-labelled peptide (diluted in 50 mM sodium phosphate buffer pH 7.4, 0.05% Tween) were added in an end volume of 50 µL. […] For fitting the data, the buffer-corrected reduced values were plotted in GraphPad PRISM against the respective protein concentration and the KD-values were obtained by fitting against the quadratic equation (Gianni et al, [2005]).
as §5

In assay [12] the target is T2, CASK kinase domain. Put plainly: GenVar_HD2 ProP-PD phage selection, CASK kinase domain. The settings on record: bait CASK kinase domain; from NGS counts of overlapping wild-type/mutant library peptide pairs; positive = mutation enhances, negative = disrupts binding. As for the experimental part:
as §1, §2, §3

In assay [13] the target is USP7 MATH/TRAF (Homo sapiens, UniProt Q93009). Put plainly: FP displacement assay, USP7 MATH/TRAF. Type of assay: binding. The settings on record: read-out: KD-values [µM] + SEM.
Sequence of USP7 MATH/TRAF (Q93009 53-206): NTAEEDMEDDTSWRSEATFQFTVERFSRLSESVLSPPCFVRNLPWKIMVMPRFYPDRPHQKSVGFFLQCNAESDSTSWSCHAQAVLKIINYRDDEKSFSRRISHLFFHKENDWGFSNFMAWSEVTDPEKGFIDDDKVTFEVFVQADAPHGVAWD
Protocol: as §6, §5
Assay [14] concerns the target T4, CLTC NTD. Nature of the assay: GenVar_HD2 ProP-PD phage selection, CLTC NTD. The settings on record: bait CLTC NTD; from NGS counts of overlapping wild-type/mutant library peptide pairs; positive = mutation enhances, negative = disrupts binding. As for the experimental part: as §1, §2, §3
The target in assay [15] is GABARAPL1 ATG8 (Homo sapiens, UniProt Q9H0R8). Put plainly: FP displacement assay, GABARAPL1 ATG8. Format: binding. The settings on record: read-out: KD-values [µM] + SEM.
Sequence of GABARAPL1 ATG8 (Q9H0R8 2-115): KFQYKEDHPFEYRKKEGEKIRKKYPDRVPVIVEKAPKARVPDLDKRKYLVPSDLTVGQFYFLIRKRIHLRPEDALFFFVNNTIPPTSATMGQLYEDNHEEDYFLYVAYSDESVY
Protocol: as §6, §5

T1 sequence (P46934 765-803 limits assumed): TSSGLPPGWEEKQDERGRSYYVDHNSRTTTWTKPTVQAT
Sequence of G3BP1 NTF2 (Q13283 1-139): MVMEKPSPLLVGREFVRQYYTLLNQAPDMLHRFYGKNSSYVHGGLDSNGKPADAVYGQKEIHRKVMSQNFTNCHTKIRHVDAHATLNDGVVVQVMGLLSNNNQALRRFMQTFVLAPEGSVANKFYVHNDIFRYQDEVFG
Sequence of KPNA4 ARM minor (O00629 68-487): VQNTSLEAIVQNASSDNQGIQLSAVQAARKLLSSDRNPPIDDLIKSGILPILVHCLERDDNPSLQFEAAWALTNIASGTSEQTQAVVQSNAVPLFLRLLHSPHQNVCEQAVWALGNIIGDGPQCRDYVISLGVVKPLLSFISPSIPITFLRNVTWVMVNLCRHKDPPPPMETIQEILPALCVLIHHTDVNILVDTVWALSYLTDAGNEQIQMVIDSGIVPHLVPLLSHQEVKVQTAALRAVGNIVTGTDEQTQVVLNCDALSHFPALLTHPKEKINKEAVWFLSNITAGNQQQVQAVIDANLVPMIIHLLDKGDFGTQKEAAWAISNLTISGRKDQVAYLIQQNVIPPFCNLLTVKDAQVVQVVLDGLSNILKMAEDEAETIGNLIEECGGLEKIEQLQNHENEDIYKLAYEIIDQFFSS
Sequence of KPNA4 ARM major (O00629 68-487): as above

Turning to “Ac-PIPGTRPPNYDSLRLQ-NH2 [SCNN1B_611-626 P616R]”, the Kd in [1] turned out to be 80 ± 7 µM. Moreover, the Mutation enrichment score in assay [2] is listed as −12.
As for “Ac-PIPGTPPPNYDSLRLQ-NH2 [SCNN1B_611-626 wild-type]”, the Kd in [1] stood at 39 ± 3 µM.
In the case of “H3COC-YSGDTSP(R/W)HLSNVSST-NH2 [MAPT_717-731 wild-type, wild-type MAPT peptide, residues 717-731]”, the “KD-values [µM] + SEM” value in assay [3] is “no binding and n.b”.
Take “Ac-EDEVYEILRDTSEEDS-NH2 [BRCA2_292-307 T298I/V299L/V300R]”: the Kd in assay [4] was 0.52 ± 0.01 µM. In assay [5] (replicate 1), the Ka was found to be 388000, the “S∆T” value stood at 3.04, the “∆H” value is given as -6718 and the “N (stoichiometry of the interaction)” value stood at 0.744. For the same compound, in [5] (replicate 2), the Ka is recorded as 524000, the “S∆T” value was found to be 3.49, the “∆H” value was -6766 and the “N (stoichiometry of the interaction)” value is 0.685. Also, in [5] (replicate 3), the Ka turned out to be 3280000, the “S∆T” value turned out to be 8.75, the “∆H” value is recorded as -6280 and the “N (stoichiometry of the interaction)” value is listed as 0.649. Also, the Kd in assay [5] (KD (isothermal titration calorimetry), 50 mM sodium phosphate pH 7.4, 1 mM DTT, peptide titrated in tenfold excess, 16 injections) was determined as 2 µM. In [6], the Mutation enrichment score was 15.
“Ac-YLLDGPPNPERAKLSS-NH2 [CREBBP_5-19 K13E]”: the Kd in assay [7] (read-out: KD-values [µM] + SEM) was 860 ± 20 µM. The “KD-values [µM] + SEM” value in assay [8] (minor pocket, FP displacement of FITC-NCOR2 (10 nM) complexed with domain (1-2x KD), 50 mM sodium phosphate pH 7.4, KD from IC50, technical triplets, ± SEM, n.b. = not binding within concentration range used) is on record as “n.b”. In [9], the Mutation enrichment score is −6.
Regarding `CC(=O)N[C@@H](CCC(=O)O)C(=O)N[C@@H](Cc1ccccc1)C(=O)N1CCC[C@H]1C(=O)N[C@H](C(=O)N1CCC[C@H]1C(=O)N[C@@H](Cc1ccccc1)C(=O)N[C@@H](Cc1ccccc1)C(=O)NCC(=O)N[C@@H](CO)C(=O)N[C@@H](CC(N)=O)C(=O)N[C@@H](CC(=O)O)C(=O)N[C@@H](Cc1ccc(O)cc1)C(=O)N[C@@H](CC(C)C)C(=O)N[C@@H](Cc1c[nH]c2ccccc12)C(=O)N[C@H](C(=O)N[C@@H](Cc1c[nH]cn1)C(N)=O)[C@@H](C)O)C(C)C` [NSD1_1793-1808 L1797P], the Mutation enrichment score in assay [10] is reported as −7.4.
In the case of “Ac-SGNLIDLYGNQGLPY-NH2 [MITF_258-271 wild-type]”, in assay [11], the Kd was 191 ± 27 µM.
For the compound `CSCC[C@H](NC(C)=O)C(=O)N[C@@H](CO)C(=O)N[C@@H](CC(=O)O)C(=O)N[C@@H](CC(C)C)C(=O)N[C@@H](Cc1c[nH]c2ccccc12)C(=O)N[C@H](C(=O)N1CCC[C@H]1C(=O)N[C@@H](CC(N)=O)C(=O)N[C@@H](CO)C(=O)N[C@@H](C)C(=O)N[C@@H](CO)C(=O)NCC(=O)N[C@@H](CCC(N)=O)C(=O)N[C@@H](CC(=O)O)C(=O)N1CCC[C@H]1C(=O)NCC(N)=O)C(C)C` [FANCA_1-16 S4L], the Mutation enrichment score in assay [12] worked out at 6.
With “Ac-PELWVAHRTAQHLSAT-NH2 [ZNF526_152-167 L160T]”, the “KD-values [µM] + SEM” value in assay [7] (major pocket, FP displacement of FITC-MYC (10 nM) complexed with domain (1-2x KD), 50 mM sodium phosphate pH 7.4, KD from IC50, ± SEM, n.b. = not binding within concentration range used) was “n.b”. Moreover, the Kd in assay [8] (read-out: KD-values [µM] + SEM) is 395 ± 10 µM. In addition, the Mutation enrichment score in assay [9] is listed as −6.4.
On to “Ac-QQSYLDFGIHSGATTT-NH2 [CTNNB1_27-42 S33F]”, for which the Mutation enrichment score in assay [10] is reported as 9.
As to “Ac-PIPGTPPRNYDSLRLQ-NH2 [SCNN1B_611-626 P618R]”, the Kd in [1] is 603 ± 73 µM. In addition, the Mutation enrichment score in [2] is given as −16.
Turning to “Ac-YISSSSTSTMPNSSQSS-NH2 [CHK2_38-53 wild-type]”, the Kd in assay [13] was 3.1 ± 0.2 µM.
Regarding “Ac-SGNLIDLCGNQGLPY-NH2 [MITF_258-271 Y265C]”, the Kd in [11] amounted to 206 ± 13 µM. For the same compound, the Mutation enrichment score in assay [14] was −9.8.
In the case of “Ac-YSGDTSPWHLSNVSST-NH2 [MAPT_717-731 R723W]”, the Mutation enrichment score in assay [12] is 12.
For the compound “H3COC-MSD(S/L)WVPNSASGQDPG-NH2 [FANCA_1-16 wild-type, wild-type FANCA peptide, residues 1-16]”, in [3], the “KD-values [µM] + SEM” value is recorded as “n.b”.
In the case of “Ac-DKDEWQSLDQNEDAFE-NH2 [BUB1_486-501 wild-type]”, the Kd in assay [15] is 5.5 ± 0.7 µM; in assay [4], 7 ± 1 µM.
